Assay results: patent US12187742B2 (XRAD Therapeutics, Inc., priority 2018, dated 2025)
pIC50: −log10 of the molar value. Structures can show the parent of a compound that is named as a salt.

How the values were obtained:
[1] = molecular target: DNA-PK (Homo sapiens (Human), UniProt P78527); assay: DNA-PK Enzyme-Linked Immunosorbent Assay (phosphorylation of GST-p53 (1-101) peptide); type: biochemical; settings: ELISA, ATP 20 μM
Procedure, shortened: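 Inhibition measured by 450 nm absorbance after HRP/TMB detection of phospho-Ser15 on immobilized GST-p53 (1-101). The kinase reaction used 0.1 μg/mL DNA-PK and 20 μM ATP, 1 h at 25 °C. Ten 3-fold compound dilutions, top final concentration 100 nM.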

[2] = molecular target: ATM (Homo sapiens (Human), UniProt Q13315); assay: ATM in Cell Western Assay (pKAP1 in etoposide-treated MCF-7 cells); type: cell-based; settings: MCF-7 cells, etoposide 100 μM, 1 hr, pKAP1 readout
ATM, sequence (Q13315 whole entry): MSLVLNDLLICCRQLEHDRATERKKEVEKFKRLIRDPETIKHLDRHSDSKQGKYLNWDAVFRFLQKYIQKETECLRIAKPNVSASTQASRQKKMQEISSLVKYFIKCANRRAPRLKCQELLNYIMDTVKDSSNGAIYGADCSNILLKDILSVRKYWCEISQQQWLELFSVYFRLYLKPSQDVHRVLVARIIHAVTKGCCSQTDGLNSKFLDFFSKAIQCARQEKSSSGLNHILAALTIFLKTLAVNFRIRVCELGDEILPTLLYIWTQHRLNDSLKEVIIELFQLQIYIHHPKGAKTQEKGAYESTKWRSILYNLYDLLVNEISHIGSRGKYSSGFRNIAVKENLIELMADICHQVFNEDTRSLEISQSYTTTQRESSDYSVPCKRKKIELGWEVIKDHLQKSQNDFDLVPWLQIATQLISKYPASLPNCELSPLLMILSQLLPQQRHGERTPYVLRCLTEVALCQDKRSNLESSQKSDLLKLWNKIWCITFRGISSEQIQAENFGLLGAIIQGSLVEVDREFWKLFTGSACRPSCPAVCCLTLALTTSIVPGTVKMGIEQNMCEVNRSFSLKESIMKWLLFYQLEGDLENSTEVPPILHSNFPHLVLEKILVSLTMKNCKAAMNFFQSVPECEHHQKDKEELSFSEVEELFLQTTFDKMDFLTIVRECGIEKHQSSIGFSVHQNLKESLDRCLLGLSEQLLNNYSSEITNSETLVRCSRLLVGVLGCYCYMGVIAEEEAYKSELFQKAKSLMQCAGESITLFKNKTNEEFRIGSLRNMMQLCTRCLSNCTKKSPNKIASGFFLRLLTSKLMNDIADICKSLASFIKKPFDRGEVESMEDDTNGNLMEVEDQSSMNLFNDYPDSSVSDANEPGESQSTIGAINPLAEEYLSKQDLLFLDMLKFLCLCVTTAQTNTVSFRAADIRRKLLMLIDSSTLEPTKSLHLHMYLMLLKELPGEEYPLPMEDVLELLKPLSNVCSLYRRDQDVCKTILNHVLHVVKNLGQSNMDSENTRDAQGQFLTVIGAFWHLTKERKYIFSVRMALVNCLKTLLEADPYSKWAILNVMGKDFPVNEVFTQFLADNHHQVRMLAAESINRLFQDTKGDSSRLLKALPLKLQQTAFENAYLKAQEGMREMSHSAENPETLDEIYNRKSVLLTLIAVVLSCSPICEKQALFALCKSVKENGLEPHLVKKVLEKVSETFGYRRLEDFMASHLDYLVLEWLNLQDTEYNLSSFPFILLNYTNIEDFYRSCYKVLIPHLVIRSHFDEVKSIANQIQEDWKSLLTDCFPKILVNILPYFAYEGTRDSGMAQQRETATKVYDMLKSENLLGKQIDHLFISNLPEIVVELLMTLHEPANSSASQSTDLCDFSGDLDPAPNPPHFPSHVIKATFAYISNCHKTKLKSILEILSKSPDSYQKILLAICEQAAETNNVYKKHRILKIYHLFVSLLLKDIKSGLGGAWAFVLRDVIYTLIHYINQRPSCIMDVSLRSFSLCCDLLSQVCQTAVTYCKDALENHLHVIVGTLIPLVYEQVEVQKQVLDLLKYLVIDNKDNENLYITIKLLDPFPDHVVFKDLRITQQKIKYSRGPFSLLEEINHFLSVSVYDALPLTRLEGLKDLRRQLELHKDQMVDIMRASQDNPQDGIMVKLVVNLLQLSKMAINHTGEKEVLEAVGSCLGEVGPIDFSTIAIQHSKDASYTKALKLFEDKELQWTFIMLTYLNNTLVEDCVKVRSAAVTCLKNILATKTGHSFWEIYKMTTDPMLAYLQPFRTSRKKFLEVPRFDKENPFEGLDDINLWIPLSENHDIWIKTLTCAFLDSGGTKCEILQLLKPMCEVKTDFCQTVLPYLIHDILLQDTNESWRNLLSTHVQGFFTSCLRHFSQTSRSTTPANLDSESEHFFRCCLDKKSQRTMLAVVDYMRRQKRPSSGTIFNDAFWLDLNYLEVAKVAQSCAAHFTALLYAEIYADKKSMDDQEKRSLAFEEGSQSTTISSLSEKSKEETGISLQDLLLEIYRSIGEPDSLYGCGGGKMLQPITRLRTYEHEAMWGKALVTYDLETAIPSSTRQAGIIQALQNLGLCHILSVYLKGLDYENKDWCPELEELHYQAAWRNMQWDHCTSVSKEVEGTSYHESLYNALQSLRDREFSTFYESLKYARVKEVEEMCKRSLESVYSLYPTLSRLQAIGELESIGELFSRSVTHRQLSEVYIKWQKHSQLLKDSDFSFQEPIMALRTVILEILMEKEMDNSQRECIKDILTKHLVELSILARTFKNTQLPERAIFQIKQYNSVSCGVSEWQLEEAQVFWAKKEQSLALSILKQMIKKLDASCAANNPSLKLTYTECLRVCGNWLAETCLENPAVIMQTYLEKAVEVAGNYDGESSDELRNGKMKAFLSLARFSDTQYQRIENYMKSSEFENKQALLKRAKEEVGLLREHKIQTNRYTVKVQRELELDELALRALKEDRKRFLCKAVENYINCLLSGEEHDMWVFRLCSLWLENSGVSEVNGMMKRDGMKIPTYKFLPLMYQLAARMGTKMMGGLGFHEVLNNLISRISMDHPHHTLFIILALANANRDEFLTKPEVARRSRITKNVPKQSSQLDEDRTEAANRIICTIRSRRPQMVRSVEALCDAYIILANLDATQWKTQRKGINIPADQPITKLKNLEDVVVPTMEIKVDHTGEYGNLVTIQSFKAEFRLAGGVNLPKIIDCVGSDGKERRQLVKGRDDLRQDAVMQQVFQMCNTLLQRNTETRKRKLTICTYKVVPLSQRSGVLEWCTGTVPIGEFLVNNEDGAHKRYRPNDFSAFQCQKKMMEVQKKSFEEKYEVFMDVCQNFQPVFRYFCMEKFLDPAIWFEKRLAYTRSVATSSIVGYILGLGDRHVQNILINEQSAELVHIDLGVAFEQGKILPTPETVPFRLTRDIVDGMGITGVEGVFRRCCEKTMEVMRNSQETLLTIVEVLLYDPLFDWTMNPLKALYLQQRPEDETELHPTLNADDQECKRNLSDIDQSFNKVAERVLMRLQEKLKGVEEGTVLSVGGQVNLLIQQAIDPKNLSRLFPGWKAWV
Procedure, shortened: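 After paraformaldehyde fixation and Triton X-100 permeabilization, immunostained plates were read by infrared scanning (ODYSSEY CLx). Compound was given as 10 doses, 3-fold dilutions from a 1 μM final top concentration.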

pIC50 [1]	pIC50 [2]	SMILES
9.00 to 9.30	> 9.30	CN(C)CCCOc1ncc(-c2ccc3ncc4c(c3c2)C2(CCC2)C(=O)N4C)cc1NS(=O)(=O)N(C)C [Example 149, 8′-{6-[3-(Dimethylamino)propoxy]-5-[(dimethylsulfamoyl)amino]pyridine-3-yl}-3′-methyl-2′,3′-dihydrospiro[cyclobutane-1,1′-pyrrolo[2,3-c]quinoline]-2′-one hydrochloride]
7.00 to 9.00	7.00 to 9.00	CN(C)CCCOc1ncc(-c2ccc3ncc4c(c3c2)C2(CCC2)C(=O)N4C)cc1NS(=O)(=O)c1cccc(C(F)(F)F)c1 [Example 150, N-(2-(3-(Dimethylamino)propoxy)-5-(3′-methyl-2′-oxo-2′,3′-dihydrospiro[cyclobutane-1,1′-pyrrolo[2,3-c]quinolin]-8′-yl)pyridin-3-yl)-3-(trifluoromethyl)benzenesulfonamide]
9.00 to 9.30	7.00 to 9.00	CN1C(=O)C2(CCC2)c2c1cnc1ccc(-c3cnc(N4CCC(N5CCCCC5)CC4)c(NS(=O)(=O)c4ccccc4)c3)cc21 [Example 155, N-(2-([1,4′-Bipiperidin]-1′-yl)-5-(3′-methyl-2′-oxo-2′,3′-dihydrospiro[cyclobulane-1,1′-pyrrolo[2,3-c]quinolin]-8′-yl)pyridin-3-yl)benzenesulfonamide hydrochloride]
7.00 to 9.00	7.00 to 9.00	CN(C)CCCOc1ncc(-c2ccc3ncc4c(c3c2)C2(CCC2)C(=O)N4C)cc1NS(=O)(=O)c1cc(Cl)cc(Cl)c1 [Example 157, 3,5-Dichloro-N-(2-(3-(dimethylamino)propoxy)-5-(3′-methyl-2′-oxo-2′,3′-dihydrospiro [cyclobutane-1,1′-pyrrolo[2,3-c]quinolin]-8′-yl)pyridin-3-yl) benzenesulfonamide hydrochloride]
> 9.30	7.00 to 9.00	CN(C)CCCOc1ncc(-c2ccc3ncc4c(c3c2)C2(CCC2)C(=O)N4C)cc1NS(=O)(=O)c1cscn1 [Example 160, N-(2-(3-(Dimethylamino)propoxy)-5-(3′-methyl-2′-oxo-2′,3′-dihydrospiro[cyclobutane-1,1′-pyrrolo[2,3-c]quinolin]-8′-yl)pyridin-3-yl)thiazole-4-sulfonamide hydrochloride]
9.00 to 9.30	7.00 to 9.00	CN(C)CCCOc1ncc(-c2ccc3ncc4c(c3c2)C2(CCC2)C(=O)N4C)cc1NS(=O)(=O)N1CCN(C)CC1 [Example 162, N-(2-(3-(Dimethylamino)propoxy)-5-(3′-methyl-2′-oxo-2′,3′-dihydrospiro[cyclobutane-1,1′-pyrrolo[2,3-c]quinolin]-8′-yl)pyridin-3-yl)-4-methylpiperazine-1-sulfonamide hydrochloride]
> 9.30	9.00 to 9.30	CN(C)CCCOc1ncc(-c2ccc3ncc4c(c3c2)C2(CCC2)C(=O)N4C)cc1NS(=O)(=O)c1ccccc1F [Example 168, N-(2-(3-(Dimethylamino)propoxy)-5-(3′-methyl-2′-oxo-2′,3′-dihydrospiro[cyclobutane-1,1′-pyrrolo[2,3-c]quinolin]-8′-yl)pyridin-3-yl)-2-fluorobenzenesulfonamide hydrochloride]
> 9.30	7.00 to 9.00	Cc1cc(S(=O)(=O)Nc2cc(-c3ccc4ncc5c(c4c3)C3(CCC3)C(=O)N5C)cnc2OCCCN(C)C)sn1 [Example 170, N-(2-(3-(Dimethylamino)propoxy)-5-(3′-methyl-2′-oxo-2′,3′-dihydrospiro [cyclobutane-1,1′-pyrrolo[2,3-c]quinolin]-8′-yl)pyridin-3-yl)-3-methylisothiazole-5-sulfonamide hydrochloride]
9.00 to 9.30	7.00 to 9.00	CN(C)CCCOc1ncc(-c2ccc3ncc4c(c3c2)C2(CCC2)C(=O)N4C)cc1NS(=O)(=O)c1cc(F)cc(Cl)c1 [Example 171, 3-Chloro-N-(2-(3-(dimethylamino)propoxy)-5-(3′-methyl-2′-oxo-2′,3′-dihydrospiro[cyclobutane-1,1′-pyrrolo[2,3-c]quinolin]-8′-yl)pyridin-3-yl)-5-fluorobenzenesulfonamide hydrochloride]
7.00 to 9.00	7.00 to 9.00	CC1CCCN1S(=O)(=O)Nc1cc(-c2ccc3ncc4c(c3c2)C2(CCC2)C(=O)N4C)cnc1OCCCN(C)C (stereo not drawn) [Example 172, N-(2-(3-(Dimethylamino)propoxy)-5-(3′-methyl-2′-oxo-2′,3′-dihydrospiro [cyclobulane-1,1′-pyrrolo[2,3-c]quinolin]-8′-yl)pyridin-3-yl)-2-methylpyrrolidine-1-sulfonamide]

Second part, the compound before the results:

SMILES	pIC50 [1]	pIC50 [2]
CN(C)CCCOc1ncc(-c2ccc3ncc4c(c3c2)C2(CCC2)C(=O)N4C)cc1NS(=O)(=O)c1cc(F)cc(F)c1 [Example 153, N-(2-(3-(Dimethylamino)propoxy)-5-(3′-methyl-2′-oxo-23′-dihydrospiro[cyclobutane-1,1′-pyrrolo[2,3-c]quinolin]-8′-yl)pyridin-3-yl)-3,5-difluorobenzenesulfonamide]	9.00 to 9.30	7.00 to 9.00
CN(C)CCCOc1ncc(-c2ccc3ncc4c(c3c2)C2(CCC2)C(=O)N4C)cc1NS(=O)(=O)c1cc(Cl)cc(C(F)(F)F)c1 [Example 154, 3-Chloro-N-(2-(3-(dimethylamino)propoxy)-5-(3′-methyl-2′-oxo-2′,3′-dihydrospiro[cyclobutane-1,1′-pyrrolo[2,3-c]quinolin]-8′-yl)pyridin-3-yl)-5-(trifluoromethyl)benzenesulfonamide hydrochloride]	7.00 to 9.00	7.00 to 9.00
CN(C)CCCOc1ncc(-c2ccc3ncc4c(c3c2)C2(CCC2)C(=O)N4C)cc1NS(=O)(=O)c1cc(F)cc(C(F)(F)F)c1 [Example 156, N-(2-(3-(Dimethylamino)propoxy)-5-(3′-methyl-2′-oxo-2′,3′-dihydrospiro[cyclobulane-1,1′-pyrrolo[2,3-c]quinolin]-8′-yl)pyridin-3-yl)-3-fluoro-5-(trifluoromethyl)benzenesulfonamide hydrochloride]	7.00 to 9.00	7.00 to 9.00
CN(C)CCCOc1ncc(-c2ccc3ncc4c(c3c2)C2(CCC2)C(=O)N4C)cc1NS(=O)(=O)c1ccc(F)cc1 [Example 158, N-(2-(3-(Dimethylamino)propoxy)-5-(3′-methyl-2-oxo-2′,3′-dihydrospiro[cyclobulane-1,1′-pyrrolo[2,3-c]quinolin]-8′-yl)pyridin-3-yl)-4-fluorobenzenesulfonamide hydrochloride]	9.00 to 9.30	9.00 to 9.30
CN(C)CCCOc1ncc(-c2ccc3ncc4c(c3c2)C2(CCC2)C(=O)N4C)cc1NS(=O)(=O)c1ccc(F)c(C#N)c1 [Example 159, 3-Cyano-N-(2-(3-(dimethylamino)propoxy)-5-(3′-methyl-2′-oxo-2′,3′-dihydrospiro [cyclobutane-1,1′-pyrrolo[2,3-c]quinolin]-8′-yl)pyridin-3-yl)-4-fluorobenzene-sulfonamide hydrochloride]	9.00 to 9.30	9.00 to 9.30
CCN(C)S(=O)(=O)Nc1cc(-c2ccc3ncc4c(c3c2)C2(CCC2)C(=O)N4C)cnc1OCCCN(C)C [Example 163, 8′-{6-[3-(Dimethylamino)propoxy]5-{[ethyl(methyl)sulfamoyl]amino}pyridin-3-yl}-3′-Methyl-2′,3′-dihydrospiro[cyclobutane-1,1′-pyrrolo[2,3-c]quinoline]-2′-one]	9.00 to 9.30	7.00 to 9.00
CN(C)CCCOc1ncc(-c2ccc3ncc4c(c3c2)C2(CCC2)C(=O)N4C)cc1NS(=O)(=O)N1CCC1 [Example 164, N-(2-(3-(Dimethylamino)propoxy)-5-(3′-methyl-2′-oxo-2′,3′-dihydrospiro[cyclobutane-1,1′-pyrrolo[2,3-c]quinolin]-8′-yl)pyridin-3-yl)azetidine-1-sulfonamide]	> 9.30	7.00 to 9.00
CC1CCN(S(=O)(=O)Nc2cc(-c3ccc4ncc5c(c4c3)C3(CCC3)C(=O)N5C)cnc2OCCCN(C)C)CC1 [Example 165, N-(2-(3-(Dimethylamino)propoxy)-5-(3′-methyl-2′-oxo-2′,3′-dihydrospiro[cyclobutane-1,1′-pyrrolo[2,3-c]quinolin]-8′-yl)pyridin-3-yl)-4-methylpiperidine-1-sulfonamide]	7.00 to 9.00	7.00 to 9.00
CN(C)CCCOc1ncc(-c2ccc3ncc4c(c3c2)C2(CCC2)C(=O)N4C)cc1NS(=O)(=O)c1cnn(C)c1 [Example 166, N-(2-(3-(Dimethylamino)propoxy)-5-(3′-methyl-2′-oxo-2′,3′-dihydrospiro [cyclobutane-1,1′-pyrrolo [2,3-c]quinolin]-8′-yl)pyridin-3-yl)-1-methyl-1H-pyrazole-4-sulfonamide hydrochloride]	7.00 to 9.00	7.00 to 9.00
Cc1ccc(S(=O)(=O)Nc2cc(-c3ccc4ncc5c(c4c3)C3(CCC3)C(=O)N5C)cnc2N2CCC(N3CCOCC3)CC2)cc1 [Example 167, 4-Methyl-N-(5-(3′-methyl-2′-oxo-2′,3′-dihydrospiro[cyclobutane-1,1′-pyrrolo[2,3-c]quinolin]-8′-yl)-2-(4-morpholinopiperidin-l-yl)pyridin-3-yl)benzenesulfonamide hydrochloride]	7.00 to 9.00	7.00 to 9.00
CN(C)CCCOc1ncc(-c2ccc3ncc4c(c3c2)C2(CCC2)C(=O)N4C)cc1NS(=O)(=O)c1cncs1 [Example 169, N-(2-(3-(Dimethylamino)propoxy)-5-(3′-methyl-2′-oxo-2′,3′-dihydrospiro [cyclobutane-1,1′-pyrrolo [2,3-c]quinolin]-8′-230 yl)pyridin-3-yl)thiazole-5-sulfonamide hydrochloride]	> 9.30	7.00 to 9.00
